Results from patent US8394792B2, “Heterocyclic derivatives” (C&C Research Laboratories, priority 2008, dated 2013).
Values after ≈ are worked out from the molar mass of the structure shown. Where a name gives a salt, the structure may show the parent alone. Read-outs that look alike come from different tables or passages of the source.

Assays:
hURAT1 = biological target: T1, hURAT1 (Homo sapiens, UniProt Q96S37); assay: Test for inhibiting urate reuptake activity via hURAT1 (uric acid transport assay in hURAT1-overexpressed HEK293 cell line); format: cell-based; details: hURAT1-overexpressed HEK293 cells, [14C]-uric acid uptake, 100 μM uric acid; read-out: IC50 (μM) hURAT, level of uric acid reuptake inhibition
T1 construct: expressed in transfected cells; host or cells: HEK293 (human kidney cell line), transient transfection with Fugene6
T1 sequence (Q96S37 1-553): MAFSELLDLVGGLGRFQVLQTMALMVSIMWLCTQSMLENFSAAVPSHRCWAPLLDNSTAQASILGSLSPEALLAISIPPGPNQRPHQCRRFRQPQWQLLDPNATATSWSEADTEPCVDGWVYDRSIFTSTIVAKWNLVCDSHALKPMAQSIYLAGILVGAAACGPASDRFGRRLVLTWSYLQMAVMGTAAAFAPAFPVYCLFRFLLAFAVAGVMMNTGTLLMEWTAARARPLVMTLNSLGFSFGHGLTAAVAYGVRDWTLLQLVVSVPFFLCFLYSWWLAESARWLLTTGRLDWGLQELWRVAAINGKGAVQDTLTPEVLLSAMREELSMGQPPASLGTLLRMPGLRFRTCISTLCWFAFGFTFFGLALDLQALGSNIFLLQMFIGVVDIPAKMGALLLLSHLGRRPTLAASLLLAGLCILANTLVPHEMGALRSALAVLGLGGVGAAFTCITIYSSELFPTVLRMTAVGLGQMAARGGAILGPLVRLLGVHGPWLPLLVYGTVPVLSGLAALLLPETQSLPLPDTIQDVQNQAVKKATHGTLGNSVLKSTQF
Method: Test for Inhibiting Urate Reuptake Activity Via hURAT1
[hURAT1 Overexpression by Transient Transfection in Human Kidney Cell Line]
A human kidney cell line, HEK293 was incubated by using OptiMEM medium in 100 mm dish at (3*10^6 cells) for 24 hours. In order for the expression of hURAT1, a transfection mixture solution (Fugene6 18 μl:hURAT1 DNA 6 μg=3:1, in 600 μl OptiMEM medium/dish) was prepared and kept for 15 minutes at room temperature. To each dish, 600 μl of the mixture solution was injected and then incubated in 37[…] cell incubator for 24 hours. The hURAT1-overexpressed HEK293 cell line was trypsinized and cells were harvested. Cells were resuspended in medium and seeded at 6*10^5 cells/well and incubated for 24 hours in 24-well plate which was surface-coated with Poly-D-Lysine.
[Uric Acid Transport Assay in hURAT1-Overexpressed HEK293 Cell Line]
For each concentration, the stock sample solution was diluted in PBS (1 μl in 800 μl of PBS) as 1.25 fold concentrated working sample solution to obtain final concentrations of 0.01, 0.1, 1 and 10 μM. The hURAT1-overexpressed cell line was washed with 1 ml of PBS. After washing, PBS was discarded and the sample solution was diluted by 1.25 fold with PBS. Preincubation of cells with 200 μl/well of sample solution made above was conducted for 30 minutes in 37[…] cell incubator. After the incubation, each well was treated with 50 μl of PBS containing 500 μM [^14C]-uric acid (final 100 μM of uric acid/well). Cells were incubated for 2 minutes. The cells were washed twice with 1 ml of PBS.
To measure the uric acid uptake, each well was treated with 150 μl of M-per buffer (PIERCE) and kept in 37° C. cell incubator for 30 minutes to make cell lysates. 150 μl of cell lysates was transferred into test tube and 4 ml of scintillation cocktail was added. CPM value of [^14C]-uric acid absorbed into cells was detected using liquid scintillation counter. IC50 for the inhibition of uric acid uptake by each test sample was analyzed by computational numerical processing.

CYP2C9 = CYP2C9 (Homo sapiens, UniProt P11712); assay: biochemical
Chain of CYP2C9 (P11712 whole entry): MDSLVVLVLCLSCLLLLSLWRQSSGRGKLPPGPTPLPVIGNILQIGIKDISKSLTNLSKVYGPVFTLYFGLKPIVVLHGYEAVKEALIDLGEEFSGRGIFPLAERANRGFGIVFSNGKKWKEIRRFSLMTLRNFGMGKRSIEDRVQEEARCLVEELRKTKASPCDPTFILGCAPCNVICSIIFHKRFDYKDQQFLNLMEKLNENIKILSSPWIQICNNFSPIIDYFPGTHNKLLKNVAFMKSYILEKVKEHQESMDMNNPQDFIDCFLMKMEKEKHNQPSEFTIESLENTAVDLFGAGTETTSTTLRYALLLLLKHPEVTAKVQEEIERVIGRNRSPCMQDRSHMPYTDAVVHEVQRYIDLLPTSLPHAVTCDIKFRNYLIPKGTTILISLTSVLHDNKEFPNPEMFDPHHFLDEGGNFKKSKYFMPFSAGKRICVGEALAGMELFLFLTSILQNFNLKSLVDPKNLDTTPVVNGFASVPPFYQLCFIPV

[1] = Test for solubility according to pH; format: physicochemical; details: 37° C. 2 hours; for solubility at 2 h: thermodynamic from solid
Method: 2.0 g of sodium chloride was dissolved in 7.0 mL of hydrochloric acid and water to make the total volume of 1000 mL. This solution was colorless and clear. Its pH was about 1.2.
To 250 mL of 0.2 mol/L potassium dihydrogen phosphate solution, 118 mL of 0.2 mol/L sodium hydroxide solution and water were added to make the total volume of 1000 mL. This solution was colorless and clear. Its pH was about 6.8.
For the compounds of present invention prepared in the examples, the test samples were prepared in each of the first and second solutions with 2 mg/mL concentration. This test sample solution was agitated for 10 seconds, sonicated for 1 minute and heated at 37° C. for 2 hours. The heated test sample solution was filtered to remove undissolved compounds therein. From filtered solution, 100 μl of the completely dissolved solution was sampled and 100 μl of acetonitrile was added thereto to make test sample solution. For each analysis of test sample solution, the solubility was measured by using liquid chromatography.

[2] = 37 °C, pH 1.2, simulated gastric fluid, first solution pH about 1.2, 2 mg/mL, read-out: Solubility (μg/mL) pH 1.2
[3] = 37 °C, pH 6.8, aqueous buffer, second solution pH about 6.8, 2 mg/mL, read-out: Solubility (μg/mL) pH 6.8
[4] = pH 1.2, simulated gastric fluid, first solution pH about 1.2, 2 mg/mL, read-out: Solubility (μg/mL) pH 1.2
[5] = pH 6.8, aqueous buffer, second solution pH about 6.8, 2 mg/mL, read-out: Solubility (μg/mL) pH 6.8

SMILES | IC50 (hURAT1) | IC50 (CYP2C9) | further results
COc1c(Br)cc(C(=O)N2CCOc3ccncc32)cc1Br [Compound 2, (3,5-dibromo-4-methoxy-phenyl)-(2,3-dihydro-pyrido[4,3-b][1,4]oxazin-4-yl)-methanone] | 0.136 µM | > 12 µM | 
COc1c(Br)cc(C(=O)N2CCOc3cnccc32)cc1Br [Compound 5, (3,5-dibromo-4-methoxy-phenyl)-(2,3-dihydro-pyrido[3,4-b][1,4]oxazin-1-yl)-methanone] | 0.175 µM |  | 
O=C(c1cc(Br)c(O)c(Br)c1)N1CCOc2cnccc21 [Compound 6, (3,5-dibromo-4-hydroxy-phenyl)-(2,3-dihydro-pyrido[3,4-b][1,4]oxazin-1-yl)-methanone] | 0.0565 µM | 3.05 µM | 
O=C(c1cc(Br)c(O)c(Br)c1)N1CCOc2ncc(C3CC3)cc21 [Compound 9, (3,5-dibromo-4-hydroxy-phenyl)-(7-cyclopropyl-2,3-dihydro-pyrido[2,3-b][1,4]oxazin-1-yl)-methanone] | 0.02 µM | > 20 µM | 
O=C(c1ccc(O)c(Cl)c1)N1CCOc2ccncc21 [Compound 10, (3-chloro-4-hydroxy-phenyl)-(2,3-dihydro-pyrido[4,3-b][1,4]oxazin-4-yl)-methanone bromic acid salt] | 0.334 µM | > 60 µM | 
O=C(c1ccc(O)c(Br)c1)N1CCOc2ccncc21 [Compound 11, (3-bromo-4-hydroxy-phenyl)-(2,3-dihydro-pyrido[4,3-b][1,4]oxazin-4-yl)-methanone bromic acid salt] | 0.175 µM | > 60 µM | 
O=C(c1ccc(O)c(Br)c1)N1CCOc2cnccc21 [Compound 16, (3-bromo-4-hydroxy-phenyl)-(2,3-dihydro-pyrido[3,4-b][1,4]oxazin-1-yl)-methanone bromic acid salt] | 0.93 µM | 3.5 µM | 
O=C(c1ccc(O)c(Cl)c1)N1CCOc2cnccc21 [Compound 18, (3-chloro-4-hydroxy-phenyl)-(2,3-dihydro-pyrido[3,4-b][1,4]oxazin-1-yl)-methanone bromic acid salt] |  | 9.7 µM | 
O=C(c1ccc(O)c(C(F)(F)F)c1)N1CCOc2cnccc21 [Compound 19, (2,3-dihydro-pyrido[3,4-b][1,4]oxazin-1-yl)-(4-hydroxy-3-trifluoromethyl-phenyl)-methanone] | 0.269 µM | 6.8 µM | 
O=C(c1cc(Br)c(O)c(Br)c1)N1CCOc2ncc(-c3ccccc3)cc21 [Compound 20, (3,5-dibromo-4-hydroxy-phenyl)-(7-phenyl-2,3-dihydro-pyrido[2,3-b][1,4]oxazin-1-yl)-methanone] | 0.034 µM | 5.2 µM | 
O=S(=O)(c1cc(Cl)c(O)c(Cl)c1)N1CCOc2ccncc21 [Compound 21, 2,6-dichloro-4-(2,3-dihydro-pyrido[4,3-b][1,4]oxazin-4-sulfonyl)-phenol] | 0.954 µM | 1.11 µM | 
O=C(c1cc(Cl)nc(Cl)c1)N1CCOc2ccncc21 [Compound 31, (2,6-dichloro-pyridin-4-yl)-(2,3-dihydro-pyrido[4,3-b][1,4]oxazin-4-yl)-methanone] |  | > 20 µM | solubility at 2 h [1, 2]: 1850 µg/mL (≈ 5.95 mM); solubility at 2 h [1, 3]: 199 µg/mL (≈ 0.641 mM)
O=C(c1ccc(O)nc1)N1CCOc2ccncc21 [Compound 32, (2,3-dihydro-pyrido[4,3-b][1,4]oxazin-4-yl)-(6-hydroxy-pyridin-3-yl)-methanone] |  | > 20 µM | solubility at 2 h [1, 2]: 1960 µg/mL (≈ 7.62 mM); solubility at 2 h [1, 3]: 1470 µg/mL (≈ 5.73 mM)
Cl.O=C(c1cc(Br)c(O)c(Br)c1)N1CCOc2ccncc21 [Compound 33, (3,5-dibromo-4-hydroxy-phenyl)-(2,3-dihydro-pyrido[4,3-b][1,4]oxazin-4-yl)-methanone hydrochloric acid salt] |  |  | solubility at 2 h [1, 4]: 1580 µg/mL; solubility at 2 h [1, 5]: 810 µg/mL
O=C(c1ccc(O)c(Cl)c1)N1CCOc2cnccc21 [Compound 34, (3-chloro-4-hydroxy-phenyl)-(2,3-dihydro-pyrido[3,4-b][1,4]oxazin-1-yl)-methanone] |  | 19.6 µM | 
O=S(=O)(c1ccc(O)cc1)N1CCOc2ccncc21 [Compound 35-1, 4-(2,3-dihydro-pyrido[4,3-b][1,4]oxazin-4-sulfonyl)-phenol] |  | > 20 µM | 
O=C(c1ccc(O)c(Br)c1)N1CCOc2cnccc21 [Compound 40, (3-bromo-4-hydroxy-phenyl)-(2,3-dihydro-pyrido[3,4-b][1,4]oxazin-1-yl)-methanone] |  | 15.1 µM | solubility at 2 h [1, 2]: 1320 µg/mL (≈ 3.93 mM); solubility at 2 h [1, 3]: 473 µg/mL (≈ 1.41 mM)
COc1cc(C(=O)N2CCOc3ccncc32)on1 [Compound 43, (2,3-dihydro-pyrido[4,3-b][1,4]oxazin-4-yl)-(3-methoxy-isoxazol-5-yl)-methanone] |  | > 20 µM | solubility at 2 h [1, 2]: 1260 µg/mL (≈ 4.82 mM); solubility at 2 h [1, 3]: 1010 µg/mL (≈ 3.86 mM)
O=C(c1cc(O)no1)N1CCOc2ccncc21 [Compound 44, (2,3-dihydro-pyrido[4,3-b][1,4]oxazin-4-yl)-(3-hydroxy-isoxazol-5-yl)-methanone] |  | > 20 µM | solubility at 2 h [1, 2]: 1960 µg/mL (≈ 7.93 mM); solubility at 2 h [1, 3]: 2100 µg/mL (≈ 8.48 mM)
O=C(CN1CCOc2ccncc21)c1cc(Br)c(O)c(Br)c1 [Compound 54, 1-(3,5-dibromo-4-hydroxy-phenyl)-2-(2,3-dihydro-pyrido[4,3-b][1,4]oxazin-4-yl)-ethanone] |  | > 6 µM | 
COc1c(Br)cc(C(=O)N2C(=O)COc3ccncc32)cc1Br [Compound 57, 4-(3,5-dibromo-4-methoxy-benzoyl)-4H-pyrido[4,3-b][1,4]oxazin-3-one] |  | > 20 µM | 
O=C(c1cnc(O)nc1O)N1CCOc2ccncc21 [Compound 59, (2,3-dihydro-pyrido[4,3-b][1,4]oxazin-4-yl)-(2,4-dihydroxy-pyrimidin-5-yl)-methanone] |  | > 20 µM | solubility at 2 h [1, 2]: 2240 µg/mL (≈ 8.18 mM); solubility at 2 h [1, 3]: 676 µg/mL (≈ 2.47 mM)
O=C(c1cc(O)nc(O)n1)N1CCOc2ccncc21 [Compound 60, (2,3-dihydro-pyrido[4,3-b][1,4]oxazin-4-yl)-(2,6-dihydroxy-pyrimidin-4-yl)-methanone] |  | > 20 µM | solubility at 2 h [1, 2]: 2130 µg/mL (≈ 7.75 mM); solubility at 2 h [1, 3]: 600 µg/mL (≈ 2.19 mM)
CC(=O)c1ccc(-c2cnc3c(c2)N(C(=O)c2cc(Br)c(O)c(Br)c2)CCO3)cc1 [Compound 67, 1-{4-[1-(3,5-dibromo-4-hydroxy-benzoyl)-2,3-dihydro-1H-pyrido[2,3-b][1,4]oxazin-7-yl]-phenyl}-ethanone] | 0.0078 µM |  | 
O=C(c1cc(Br)c(O)c(Br)c1)N1CCOc2ccncc21 [Compound 71, (3,5-dibromo-4-hydroxy-phenyl)-(2,3-dihydro-pyrido[4,3-b][1,4]oxazin-4-yl)-methanone sulfuric acid salt] |  | > 20 µM | solubility at 2 h [1, 2]: 2140 µg/mL; Solubility (μg/mL) pH 6.8 ([1]; second solution pH about 6.8, 2 mg/mL): 344.7 μg/mL
O=C(c1cc(Br)c([O-])c(Br)c1)N1CCOc2ccncc21.[K+] [Compound 73] |  |  | solubility at 2 h [1, 4]: 1150 µg/mL; solubility at 2 h [1, 5]: 565 µg/mL
O=C1CCCN1c1cnc2c(c1)N(C(=O)c1cc(Br)c(O)c(Br)c1)CCO2 [Compound 75, 1-[1-(3,5-dibromo-4-hydroxy-benzoyl)-2,3-dihydro-1H-pyrido[2,3-b][1,4]oxazin-7-yl]-pyrrolidin-2-one] |  | 11.6 µM | 
